Results taken from US6365590B1, “Compounds, compositions and methods for treating erectile dysfunction” (Saint Louis University, priority 1998, dated 2002).
Structures can show the parent of a compound that is named as a salt.

Experiments:
sperm = settings: cited from earlier work
[1] = pH of a 10 mM aqueous solution of the compound; type: physicochemical; settings: 22° C.
[2] = concentrations up to 20%; cited from earlier work

| Structure (SMILES) | effect on the viability of sperm (sperm) | pH of a 10 mM aqueous solution [1] | further results |
| --- | --- | --- | --- |
| CCCCC[C@H](O)/C=C/[C@H]1[C@H](O)CC(=O)[C@@H]1CCCCCCC(=O)O [alprostadil] | no effect | – | – |
| CCCCC[C@H](O)/C=C/[C@H]1[C@H](O)CC(=O)[C@@H]1CCCCCCC(=O)O.CCN(CC)CC(=O)Nc1c(C)cccc1C [lidocaine alprostadilate] | – | 6.29-6.36 | – |
| COc1ccc(Cc2nccc3cc(OC)c(OC)cc23)cc1OC [papaverine] | – | – | effectiveness as a topical agent in erectile dysfunction [2]: not sufficiently effective for clinical use |
| CCCCCC(O)C=CC1C(O)CC(=O)C1CCCCCCC(=O)O.COc1cc2nc(N3CCN(C(=O)c4ccco4)CC3)nc(N)c2cc1OC [prazosin alprostadilate] | – | 6.32-6.38 | – |
| COc1cc2nc(N3CCN(C(=O)c4ccco4)CC3)nc(N)c2cc1OC [prazosin hydrochloride] | no effect | – | – |
